Test results published in PubChem BioAssay (NCI).
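Results reflect a 48-hour exposure of cells in 96-well plates to compound at five concentrations. TGI denotes the concentration required for complete inhibition of growth.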

What was measured:
Assay in all cases: NCI tumour cell line growth inhibition, 48 h
M19-MEL melanoma = system: M19-MEL melanoma
RXF 393 renal = system: RXF 393 renal
786-0 renal = system: 786-0 renal
DMS 114 small cell lung = system: DMS 114 small cell lung
LXFL 529 NSCLC = system: LXFL 529 NSCLC
SNB-19 CNS = system: SNB-19 CNS
UO-31 renal = system: UO-31 renal
U251 CNS = system: U251 CNS
KM20L2 colon = system: KM20L2 colon
HCT-116 colon = system: HCT-116 colon
HCC-2998 colon = system: HCC-2998 colon
EKVX NSCLC = system: EKVX NSCLC
MALME-3M melanoma = system: MALME-3M melanoma
HCT-15 colon = system: HCT-15 colon
COLO 205 colon = system: COLO 205 colon
IGROV1 ovarian = system: IGROV1 ovarian
NCI-H226 lung = system: NCI-H226 lung
K-562 leukemia = system: K-562 leukemia
SF-539 CNS = system: SF-539 CNS
SNB-75 CNS = system: SNB-75 CNS
NCI-H23 lung = system: NCI-H23 lung
SK-MEL-2 melanoma = system: SK-MEL-2 melanoma
HL-60(TB) leukemia = system: HL-60(TB) leukemia
OVCAR-5 ovarian = system: OVCAR-5 ovarian
NCI-H522 lung = system: NCI-H522 lung
SF-268 CNS = system: SF-268 CNS
RPMI-8226 leukemia = system: RPMI-8226 leukemia
DMS 273 small cell lung = system: DMS 273 small cell lung
LOX IMVI melanoma = system: LOX IMVI melanoma
NCI-H460 lung = system: NCI-H460 lung
SK-MEL-5 melanoma = system: SK-MEL-5 melanoma
SK-OV-3 ovarian = system: SK-OV-3 ovarian
A549 NSCLC = system: A549 NSCLC
OVCAR-8 ovarian = system: OVCAR-8 ovarian
MOLT-4 leukemia = system: MOLT-4 leukemia
SN12C renal = system: SN12C renal
XF 498 CNS = system: XF 498 CNS
CAKI-1 renal = system: CAKI-1 renal
HOP-62 NSCLC = system: HOP-62 NSCLC
HT29 colon = system: HT29 colon
OVCAR-3 ovarian = system: OVCAR-3 ovarian
ACHN renal = system: ACHN renal
SW-620 colon = system: SW-620 colon
M14 melanoma = system: M14 melanoma
CCRF-CEM leukemia = system: CCRF-CEM leukemia
SR leukemia = system: SR leukemia
DLD-1 colon = system: DLD-1 colon
RXF-631 renal = system: RXF-631 renal
SF-295 CNS = system: SF-295 CNS
KM12 colon = system: KM12 colon
OVCAR-4 ovarian = system: OVCAR-4 ovarian
UACC-257 melanoma = system: UACC-257 melanoma
SK-MEL-28 melanoma = system: SK-MEL-28 melanoma
A498 renal = system: A498 renal
UACC-62 melanoma = system: UACC-62 melanoma
HOP-92 NSCLC = system: HOP-92 NSCLC
TK-10 renal = system: TK-10 renal

In the case of `COC(=O)C1=C(C(=O)OC)C2(C)OC1C(=O)C21CC1` (stereo unspecified), the TGI (M19-MEL melanoma) is reported as over 100 µM, the TGI (RXF 393 renal) is reported as 32.3 µM and the TGI (786-0 renal) is reported as over 100 µM. It also gave a TGI (DMS 114 small cell lung) of 42.9 µM, a TGI (LXFL 529 NSCLC) of 35.1 µM and a TGI (SNB-19 CNS) of over 100 µM. For the same molecule, the TGI (UO-31 renal) was over 100 µM, the TGI (U251 CNS) was over 100 µM and the TGI (KM20L2 colon) was 65.7 µM. It also gave a TGI (HCT-116 colon) of 43.4 µM, a TGI (HCC-2998 colon) of 53 µM and a TGI (EKVX NSCLC) of over 100 µM. For the same molecule, the TGI (MALME-3M melanoma) was 70.6 µM, the TGI (HCT-15 colon) was 44.6 µM and the TGI (COLO 205 colon) was 56.5 µM. It also gave a TGI (IGROV1 ovarian) of 57.7 µM, a TGI (NCI-H226 lung) of over 100 µM and a TGI (K-562 leukemia) of 69.1 µM. The TGI (SF-539 CNS) was 41.5 µM, the TGI (SNB-75 CNS) was 99.7 µM and the TGI (NCI-H23 lung) was 51.2 µM. It also gave a TGI (SK-MEL-2 melanoma) of over 100 µM, a TGI (HL-60(TB) leukemia) of 39.6 µM and a TGI (OVCAR-5 ovarian) of over 100 µM. For the same molecule, the TGI (NCI-H522 lung) was 25.9 µM, the TGI (SF-268 CNS) was over 100 µM and the TGI (RPMI-8226 leukemia) was 42.7 µM. It also gave a TGI (DMS 273 small cell lung) of 40.2 µM, a TGI (LOX IMVI melanoma) of 45.3 µM and a TGI (NCI-H460 lung) of 63.5 µM. It also gave a TGI (SK-MEL-5 melanoma) of over 100 µM, a TGI (SK-OV-3 ovarian) of over 100 µM and a TGI (A549 NSCLC) of over 100 µM. It also gave a TGI (OVCAR-8 ovarian) of 52.8 µM, a TGI (MOLT-4 leukemia) of 44.9 µM and a TGI (SN12C renal) of 43.4 µM. It also gave a TGI (XF 498 CNS) of 26.5 µM, a TGI (CAKI-1 renal) of 44.1 µM and a TGI (HOP-62 NSCLC) of over 100 µM. It also gave a TGI (HT29 colon) of 37 µM, a TGI (OVCAR-3 ovarian) of 55.8 µM and a TGI (ACHN renal) of 41.6 µM. For the same molecule, the TGI (SW-620 colon) was 38.6 µM, the TGI (M14 melanoma) was 34.9 µM and the TGI (CCRF-CEM leukemia) was 39.6 µM. The TGI (SR leukemia) was 44.6 µM, the TGI (DLD-1 colon) was 51.1 µM and the TGI (RXF-631 renal) was 36.1 µM. The TGI (SF-295 CNS) was over 100 µM, the TGI (KM12 colon) was over 100 µM and the TGI (OVCAR-4 ovarian) was 25.1 µM. The TGI (UACC-257 melanoma) was over 100 µM.

Molecule `CC(=O)N(C(C)=O)c1c(N)n(C)c(=O)[nH]c1=O` has a TGI (M19-MEL melanoma) of over 100 µM, a TGI (SK-MEL-28 melanoma) of over 100 µM and a TGI (RXF 393 renal) of over 100 µM. For the same molecule, the TGI (786-0 renal) was over 100 µM, the TGI (DMS 114 small cell lung) was over 100 µM and the TGI (LXFL 529 NSCLC) was over 100 µM. It also gave a TGI (SNB-19 CNS) of over 100 µM, a TGI (UO-31 renal) of over 100 µM and a TGI (KM20L2 colon) of over 100 µM. It also gave a TGI (HCT-116 colon) of over 100 µM, a TGI (HCC-2998 colon) of over 100 µM and a TGI (EKVX NSCLC) of over 100 µM. The TGI (MALME-3M melanoma) was over 100 µM, the TGI (HCT-15 colon) was over 100 µM and the TGI (COLO 205 colon) was over 100 µM. For the same molecule, the TGI (IGROV1 ovarian) was over 100 µM, the TGI (NCI-H226 lung) was over 100 µM and the TGI (K-562 leukemia) was over 100 µM. It also gave a TGI (SF-539 CNS) of over 100 µM, a TGI (NCI-H23 lung) of over 100 µM and a TGI (SK-MEL-2 melanoma) of over 100 µM. The TGI (HL-60(TB) leukemia) was over 100 µM, the TGI (OVCAR-5 ovarian) was over 100 µM and the TGI (SF-268 CNS) was over 100 µM. The TGI (RPMI-8226 leukemia) was over 100 µM, the TGI (DMS 273 small cell lung) was over 100 µM and the TGI (LOX IMVI melanoma) was over 100 µM. It also gave a TGI (NCI-H460 lung) of over 100 µM, a TGI (SK-MEL-5 melanoma) of over 100 µM and a TGI (A498 renal) of over 100 µM. The TGI (A549 NSCLC) was over 100 µM, the TGI (OVCAR-8 ovarian) was over 100 µM and the TGI (MOLT-4 leukemia) was over 100 µM. It also gave a TGI (SN12C renal) of over 100 µM, a TGI (XF 498 CNS) of over 100 µM and a TGI (CAKI-1 renal) of over 100 µM. For the same molecule, the TGI (HT29 colon) was over 100 µM, the TGI (OVCAR-3 ovarian) was over 100 µM and the TGI (ACHN renal) was over 100 µM. It also gave a TGI (UACC-62 melanoma) of over 100 µM, a TGI (SW-620 colon) of over 100 µM and a TGI (M14 melanoma) of over 100 µM. The TGI (CCRF-CEM leukemia) was over 100 µM, the TGI (HOP-92 NSCLC) was over 100 µM and the TGI (DLD-1 colon) was over 100 µM. The TGI (RXF-631 renal) was over 100 µM, the TGI (SF-295 CNS) was over 100 µM and the TGI (KM12 colon) was over 100 µM. The TGI (OVCAR-4 ovarian) was over 100 µM and the TGI (UACC-257 melanoma) was over 100 µM.

Molecule `CC(=O)COC(=O)CC(C)=O` has a TGI (M19-MEL melanoma) of over 100 µM, a TGI (SK-MEL-28 melanoma) of over 100 µM and a TGI (RXF 393 renal) of over 100 µM. It also gave a TGI (786-0 renal) of over 100 µM, a TGI (DMS 114 small cell lung) of over 100 µM and a TGI (LXFL 529 NSCLC) of over 100 µM. It also gave a TGI (SNB-19 CNS) of over 100 µM, a TGI (UO-31 renal) of over 100 µM and a TGI (U251 CNS) of over 100 µM. For the same molecule, the TGI (KM20L2 colon) was over 100 µM, the TGI (HCT-116 colon) was over 100 µM and the TGI (HCC-2998 colon) was over 100 µM. It also gave a TGI (EKVX NSCLC) of over 100 µM, a TGI (MALME-3M melanoma) of over 100 µM and a TGI (HCT-15 colon) of over 100 µM. For the same molecule, the TGI (COLO 205 colon) was over 100 µM, the TGI (IGROV1 ovarian) was over 100 µM and the TGI (NCI-H226 lung) was over 100 µM. The TGI (K-562 leukemia) was over 100 µM, the TGI (SF-539 CNS) was over 100 µM and the TGI (SNB-75 CNS) was over 100 µM. The TGI (NCI-H23 lung) was over 100 µM, the TGI (SK-MEL-2 melanoma) was over 100 µM and the TGI (HL-60(TB) leukemia) was over 100 µM. For the same molecule, the TGI (OVCAR-5 ovarian) was over 100 µM, the TGI (NCI-H522 lung) was over 100 µM and the TGI (SF-268 CNS) was over 100 µM. The TGI (RPMI-8226 leukemia) was over 100 µM, the TGI (DMS 273 small cell lung) was over 100 µM and the TGI (LOX IMVI melanoma) was over 100 µM. For the same molecule, the TGI (NCI-H460 lung) was over 100 µM, the TGI (TK-10 renal) was over 100 µM and the TGI (SK-OV-3 ovarian) was over 100 µM. It also gave a TGI (A549 NSCLC) of over 100 µM, a TGI (OVCAR-8 ovarian) of over 100 µM and a TGI (MOLT-4 leukemia) of over 100 µM. For the same molecule, the TGI (SN12C renal) was over 100 µM, the TGI (XF 498 CNS) was over 100 µM and the TGI (CAKI-1 renal) was over 100 µM. For the same molecule, the TGI (HOP-62 NSCLC) was over 100 µM, the TGI (HT29 colon) was over 100 µM and the TGI (OVCAR-3 ovarian) was over 100 µM. It also gave a TGI (ACHN renal) of over 100 µM, a TGI (UACC-62 melanoma) of over 100 µM and a TGI (SW-620 colon) of over 100 µM. For the same molecule, the TGI (M14 melanoma) was over 100 µM, the TGI (CCRF-CEM leukemia) was over 100 µM and the TGI (SR leukemia) was over 100 µM. For the same molecule, the TGI (DLD-1 colon) was over 100 µM, the TGI (RXF-631 renal) was over 100 µM and the TGI (SF-295 CNS) was over 100 µM. It also gave a TGI (KM12 colon) of over 100 µM, a TGI (OVCAR-4 ovarian) of over 100 µM and a TGI (UACC-257 melanoma) of over 100 µM.
